Experimental data published in ChEMBL document CHEMBL1165868, “Synthesis and antimicrobial activity of cholic acid hydrazone analogues” (2010).
≈ marks a conversion by molar mass, not a printed value. Calls of active or inactive are those of the source. The rule behind the calls is not given here.

Assays:
Format in all cases: functional
Klebsiella aerogenes = test: Antimicrobial activity against Enterobacter aerogenes after 24 hrs
Priestia megaterium = test: Antimicrobial activity against Bacillus megaterium after 24 hrs
Staphylococcus aureus = test: Antimicrobial activity against Staphylococcus aureus after 24 hrs
Enterococcus faecalis = test: Antimicrobial activity against Enterococcus faecalis after 24 hrs
Escherichia coli = test: Antimicrobial activity against Escherichia coli after 24 hrs
Pseudomonas aeruginosa = test: Antimicrobial activity against Pseudomonas aeruginosa after 24 hrs

MIC (Klebsiella aerogenes) | MIC (Priestia megaterium) | MIC (Staphylococcus aureus) | MIC (Enterococcus faecalis) | MIC (Escherichia coli) | MIC (Pseudomonas aeruginosa) | SMILES
inactive | 31.2 µg/mL (≈ 57.8 µM) | 62.5 µg/mL (≈ 116 µM) | 15.6 µg/mL (≈ 28.9 µM) | 7.81 µg/mL (≈ 14.4 µM) | inactive | COc1ccc(/C=N/NC(=O)CC[C@@H](C)[C@H]2CC[C@H]3[C@@H]4[C@H](O)C[C@@H]5C[C@H](O)CC[C@]5(C)[C@H]4C[C@H](O)[C@]23C)cc1
inactive | 31.2 µg/mL (≈ 62.4 µM) | inactive | inactive | inactive | inactive | C[C@H](CCC(=O)N/N=C/c1ccco1)[C@H]1CC[C@H]2[C@@H]3[C@H](O)C[C@@H]4C[C@H](O)CC[C@]4(C)[C@H]3C[C@H](O)[C@]12C
inactive | 31.2 µg/mL (≈ 58.3 µM) | 31.2 µg/mL (≈ 58.3 µM) | 15.6 µg/mL (≈ 29.2 µM) | 7.81 µg/mL (≈ 14.6 µM) | inactive | C[C@H](CCC(=O)N/N=C/c1ccc(C#N)cc1)[C@H]1CC[C@H]2[C@@H]3[C@H](O)C[C@@H]4C[C@H](O)CC[C@]4(C)[C@H]3C[C@H](O)[C@]12C
inactive | 31.2 µg/mL (≈ 54.8 µM) | inactive | 15.6 µg/mL (≈ 27.4 µM) | inactive | inactive | COc1ccc(OC)c(/C=N/NC(=O)CC[C@@H](C)[C@H]2CC[C@H]3[C@@H]4[C@H](O)C[C@@H]5C[C@H](O)CC[C@]5(C)[C@H]4C[C@H](O)[C@]23C)c1
inactive | 31.2 µg/mL (≈ 53 µM) | 31.2 µg/mL (≈ 53 µM) | 3.91 µg/mL (≈ 6.63 µM) | 7.81 µg/mL (≈ 13.2 µM) | inactive | C[C@H](CCC(=O)N/N=C/c1ccc(Cl)c([N+](=O)[O-])c1)[C@H]1CC[C@H]2[C@@H]3[C@H](O)C[C@@H]4C[C@H](O)CC[C@]4(C)[C@H]3C[C@H](O)[C@]12C
inactive | 31.2 µg/mL (≈ 57.3 µM) | 31.2 µg/mL (≈ 57.3 µM) | 1.96 µg/mL (≈ 3.6 µM) | 3.91 µg/mL (≈ 7.17 µM) | inactive | C[C@H](CCC(=O)N/N=C/c1cccc(Cl)c1)[C@H]1CC[C@H]2[C@@H]3[C@H](O)C[C@@H]4C[C@H](O)CC[C@]4(C)[C@H]3C[C@H](O)[C@]12C
inactive | 31.2 µg/mL (≈ 61.1 µM) | inactive | inactive | 7.81 µg/mL (≈ 15.3 µM) | inactive | C[C@H](CCC(=O)N/N=C/c1ccccn1)[C@H]1CC[C@H]2[C@@H]3[C@H](O)C[C@@H]4C[C@H](O)CC[C@]4(C)[C@H]3C[C@H](O)[C@]12C
inactive | 15.6 µg/mL (≈ 28.4 µM) | 31.2 µg/mL (≈ 56.8 µM) | 3.91 µg/mL (≈ 7.11 µM) | inactive | inactive | C[C@H](CCC(=O)N/N=C/c1cc2ccccc2[nH]1)[C@H]1CC[C@H]2[C@@H]3[C@H](O)C[C@@H]4C[C@H](O)CC[C@]4(C)[C@H]3C[C@H](O)[C@]12C
inactive | 31.2 µg/mL (≈ 54.8 µM) | inactive | 15.6 µg/mL (≈ 27.4 µM) | 3.91 µg/mL (≈ 6.85 µM) | inactive | COc1cccc(/C=N/NC(=O)CC[C@@H](C)[C@H]2CC[C@H]3[C@@H]4[C@H](O)C[C@@H]5C[C@H](O)CC[C@]5(C)[C@H]4C[C@H](O)[C@]23C)c1OC
7.82 µg/mL (≈ 21.3 µM) | 31.2 µg/mL (≈ 85 µM) | 31.2 µg/mL (≈ 85 µM) | 31.2 µg/mL (≈ 85 µM) | inactive | inactive | N[C@@H](C(=O)N[C@@H]1C(=O)N2C(C(=O)O)=C(Cl)CS[C@H]12)c1ccccc1 [CEFACLOR ANHYDROUS]
inactive | inactive | 31.2 µg/mL (≈ 59.6 µM) | 7.82 µg/mL (≈ 14.9 µM) | 7.81 µg/mL (≈ 14.9 µM) | inactive | Cc1ccc(/C=N/NC(=O)CC[C@@H](C)[C@H]2CC[C@H]3[C@@H]4[C@H](O)C[C@@H]5C[C@H](O)CC[C@]5(C)[C@H]4C[C@H](O)[C@]23C)cc1
inactive | 31.2 µg/mL (≈ 53 µM) | inactive | 1.96 µg/mL (≈ 3.32 µM) | 7.81 µg/mL (≈ 13.2 µM) | inactive | C[C@H](CCC(=O)N/N=C/c1ccccc1Br)[C@H]1CC[C@H]2[C@@H]3[C@H](O)C[C@@H]4C[C@H](O)CC[C@]4(C)[C@H]3C[C@H](O)[C@]12C
inactive | 31.2 µg/mL (≈ 59.3 µM) | 31.2 µg/mL (≈ 59.3 µM) | 7.82 µg/mL (≈ 14.8 µM) | inactive | inactive | C[C@H](CCC(=O)N/N=C/c1ccccc1O)[C@H]1CC[C@H]2[C@@H]3[C@H](O)C[C@@H]4C[C@H](O)CC[C@]4(C)[C@H]3C[C@H](O)[C@]12C
inactive | 31.2 µg/mL (≈ 59.1 µM) | 31.2 µg/mL (≈ 59.1 µM) | 62.5 µg/mL (≈ 118 µM) | inactive | inactive | C[C@H](CCC(=O)N/N=C/c1ccc(F)cc1)[C@H]1CC[C@H]2[C@@H]3[C@H](O)C[C@@H]4C[C@H](O)CC[C@]4(C)[C@H]3C[C@H](O)[C@]12C
inactive | 31.2 µg/mL (≈ 61.2 µM) | 62.5 µg/mL (≈ 122 µM) | 15.6 µg/mL (≈ 30.6 µM) | 3.91 µg/mL (≈ 7.66 µM) | inactive | C[C@H](CCC(=O)N/N=C/c1ccccc1)[C@H]1CC[C@H]2[C@@H]3[C@H](O)C[C@@H]4C[C@H](O)CC[C@]4(C)[C@H]3C[C@H](O)[C@]12C
31.2 µg/mL (≈ 68.9 µM) | inactive | 31.2 µg/mL (≈ 68.9 µM) | 31.2 µg/mL (≈ 68.9 µM) | 1.96 µg/mL (≈ 4.32 µM) | 19.5 µg/mL (≈ 43.1 µM) | C=CC1=C(C(=O)O)N2C(=O)[C@@H](NC(=O)/C(=N\OCC(=O)O)c3csc(N)n3)[C@H]2SC1 [CEFIXIME]
inactive | 31.2 µg/mL (≈ 73.9 µM) | inactive | 31.2 µg/mL (≈ 73.9 µM) | inactive | inactive | C[C@H](CCC(=O)NN)[C@H]1CC[C@H]2[C@@H]3[C@H](O)C[C@@H]4C[C@H](O)CC[C@]4(C)[C@H]3C[C@H](O)[C@]12C [CHOLYLHYDRAZIDE]
inactive | 7.82 µg/mL (≈ 13.3 µM) | 62.5 µg/mL (≈ 106 µM) | 3.91 µg/mL (≈ 6.63 µM) | 3.91 µg/mL (≈ 6.63 µM) | inactive | C[C@H](CCC(=O)N/N=C/c1ccc(Br)cc1)[C@H]1CC[C@H]2[C@@H]3[C@H](O)C[C@@H]4C[C@H](O)CC[C@]4(C)[C@H]3C[C@H](O)[C@]12C
inactive | 31.2 µg/mL (≈ 62.5 µM) | inactive | inactive | inactive | inactive | C[C@H](CCC(=O)N/N=C/c1ccc[nH]1)[C@H]1CC[C@H]2[C@@H]3[C@H](O)C[C@@H]4C[C@H](O)CC[C@]4(C)[C@H]3C[C@H](O)[C@]12C
inactive | 15.6 µg/mL (≈ 30.2 µM) | 62.5 µg/mL (≈ 121 µM) | 31.2 µg/mL (≈ 60.5 µM) | inactive | inactive | C[C@H](CCC(=O)N/N=C/c1cccs1)[C@H]1CC[C@H]2[C@@H]3[C@H](O)C[C@@H]4C[C@H](O)CC[C@]4(C)[C@H]3C[C@H](O)[C@]12C
inactive | 31.2 µg/mL (≈ 57.3 µM) | 62.5 µg/mL (≈ 115 µM) | 1.96 µg/mL (≈ 3.6 µM) | 3.91 µg/mL (≈ 7.17 µM) | inactive | C[C@H](CCC(=O)N/N=C/c1ccc(Cl)cc1)[C@H]1CC[C@H]2[C@@H]3[C@H](O)C[C@@H]4C[C@H](O)CC[C@]4(C)[C@H]3C[C@H](O)[C@]12C
inactive | 31.2 µg/mL (≈ 56.2 µM) | 31.2 µg/mL (≈ 56.2 µM) | 7.82 µg/mL (≈ 14.1 µM) | 7.81 µg/mL (≈ 14.1 µM) | inactive | C[C@H](CCC(=O)N/N=C/c1ccc([N+](=O)[O-])cc1)[C@H]1CC[C@H]2[C@@H]3[C@H](O)C[C@@H]4C[C@H](O)CC[C@]4(C)[C@H]3C[C@H](O)[C@]12C
inactive | inactive | inactive | 31.2 µg/mL (≈ 53.9 µM) | inactive | inactive | COc1ccc2[nH]cc(/C=N/NC(=O)CC[C@@H](C)[C@H]3CC[C@H]4[C@@H]5[C@H](O)C[C@@H]6C[C@H](O)CC[C@]6(C)[C@H]5C[C@H](O)[C@]34C)c2c1
inactive | inactive | inactive | 31.2 µg/mL (≈ 76.5 µM) | 7.81 µg/mL (≈ 19.1 µM) | 15.6 µg/mL (≈ 38.3 µM) | C[C@H](CCC(=O)O)[C@H]1CC[C@H]2[C@@H]3[C@H](O)C[C@@H]4C[C@H](O)CC[C@]4(C)[C@H]3C[C@H](O)[C@]12C [CHOLIC ACID]
